# From patent US20260373274A1, “PEPTIDE-LINKED DRUG DELIVERY SYSTEM” (priority 2022, published 2026)
# Entries after “also recorded” stand apart in the source; their conditions may differ. Where a SMILES comes first, the peptide text is derived from it. [ ]: non-standard residue; d: D form. The star is where a group is joined. X1 = COc1cc2cc(c1Cl)N(C)C(=O)C[C@H](OC(=O)[C@H](C)N(C)C(=O)CCS*)[C@]1(C)O[C@H]1[C@H](C)[C@@H]1C[C@@](O)(NC(=O)O1)[C@H](OC)/C=C/C=C(\C)C2; βAla = NCCC(=O)O; Mpa = O=C(O)CCS
# What was measured:
# [1] = test system: UMUC-3; test: Cell viability and cytotoxicity assay; type: cell-based, human; conditions: 72 h
# Protocol: (§1) Cell viability and cytotoxicity assay—Cancer cells (3×10^3/well) were seeded on a flat bottom 96-well plate overnight. […] CellTiter Glo reagent (Promega, Madison, WI) was added in each well (50 μL). The luminescence generated was recorded using a microplate reader (Tecan US Inc., Morrisville, NC). The dose response curves were plotted, and the half maximal inhibitory concentrations (IC50 values) were calculated using Graph Pad Prism 6.0 software.
# [2] = test system: Renca; test: Cell viability and cytotoxicity assay; type: cell-based, murine; conditions: 72 h
# Protocol: as §1
# [3] = test system: panel of BC cell lines; test: Cell viability and cytotoxicity assay, panel; type: cell-based
# Protocol: as §1
# [4] = test system: kidney injury molecule-1 (KIM-1) and neutrophil gelatinase-associated lipocalin (NGAL); test: Nephrotoxicity studies, urinary renal injury biomarkers by ELISA; type: in vivo, BALB/c mice; conditions: single i.v. dose
# Protocol: (§2) The level of the acute renal injury biomarkers, neutrophil gelatinase-associated lipocalin (NGAL) and kidney injury molecule-1 (KIM-1) in the urine samples, were measured using ELISA assays according to the manufacturer's instructions (R&D Systems, Minneapolis, MN). […] All the animals (n=3/group) were euthanized at the end of the treatment and the kidneys were collected and fixed in 10% neutral buffered formalin. The tissues were then processed, embedded in paraffin, sectioned, and stained with H&E. Immunohistochemistry (IHC) for kidney injury (NGAL and KIM-I) was also performed.
# [5] = test system: orthotopic human UMUC-3 tumors; test: Therapeutic efficacy for treating BC, orthotopic UMUC-3/GFP-Luc xenograft; conditions: for anti-tumor activity of i.v. DM1-Bdd versus i.v. DM1: bioluminescence imaging during 3 once-per-week treatments; for animal survival compared to i.t. MIT / survival after 100 days / tumor growth inhibition compared to i.t. MIT: 0.75 mg/kg weekly for 3 weeks
# Description: These animals were immediately euthanized I week after the completion of the treatment schedule.
# (§3) Slides were then counterstained with Hematoxylin.
# [6] = test system: Renca/GFP-Luc tumors; test: Kidney cancer treatment, orthotopic Renca/GFP-Luc syngeneic model; type: in vivo, female BALB/c mice; murine tumor cells
# Protocol: Evaluation of DM1-Bdd for Kidney cancer treatment—Renca/GFP-Luc cells ([…]) in PBS (3 μL) were orthotopically implanted into the kidney capsules of 7- to 9-week-old female BALB/c mice (Jackson Laboratory, Bar Harbor, ME) as previously described. The tumor progression was confirmed by bioluminescence imaging. […] The animals were monitored for tumor growth inhibition and survival as described above. Additional mice were used for histopathological analysis (n=4/group).
# as §3
# [7] = Hematology, complete blood count; type: in vivo, female BALB/c mice
# Protocol: (§4) Necropsy—Seven- to 9-week-old female BALB/c mice (n=4/group) were treated weekly with PBS, DM1, DM1-peptide (0.75 mg/kg of drug content), or cisplatin (10 mg/kg) via tail-vein injection (150 μL). At the end of a 3-week treatment, mice were euthanized. The organs/tissues were harvested, fixed in 10% neutral buffered formalin for 2 days. Bones were decalcified in a formic acid solution (Surgipath Decalcifier I; Leica Biosystems, Weltzar, Germany). The samples were then embedded in paraffin, sectioned (5 μm), and stained with H&E for examination by an ACVP board certified anatomic pathologist.
# (§5) Hematology and biochemistry—Blood samples were collected via cardiac puncture. A complete blood count, including red blood cell, white blood cell, reticulocyte and platelet counts, with an automated differential leukocyte count, was performed using an IDEXX Procyte DX hematology analyzer (iDEXX, Westbrook. ME). Blood smears were prepared, stained with modified Wright's stain, examined in a blinded fashion by a board-certified veterinary clinical pathologist (T.S.), and imaged using a Nikon Eclipse TE2000-U fluorescent microscope equipped with a photometrics CoolSNAP HQ^2 camera (Nikon Corporation, Tokyo, Japan). The blood was also centrifuged (1,500×G) for 15 min to obtain the serum for biochemical analysis using a Beckman Coulter AU680 analyzer (Beckman Coulter, Brea, CA).
# [8] = Serum biochemistry; type: in vivo, female BALB/c mice; conditions: i.v. weekly for 3 weeks, CIS 10 mg/kg; for hepatotoxicity: release of ALP, ALT, and AST / urea nitrogen/creatinine ratio: DM1/DM1-Bdd 0.75 mg/kg
# Description: as §4, with “At” for “Necropsy—Seven- to 9-week-old female BALB/c mice (n=4/group) were treated weekly with PBS, DM1, DM1-peptide (0.75 mg/kg of drug content), or cisplatin (10 mg/kg) via tail-vein injection (150 μL). At”
# as §5
# [9] = test system: major organs (liver, spleen, heart, lungs, and kidneys); test: Necropsy, histopathology of major organs; type: in vivo, female BALB/c mice
# Description: as §4, with “At” for “Necropsy—Seven- to 9-week-old female BALB/c mice (n=4/group) were treated weekly with PBS, DM1, DM1-peptide (0.75 mg/kg of drug content), or cisplatin (10 mg/kg) via tail-vein injection (150 μL). At”
# [10] = In vitro drug release study, DM1-peptide; type: physicochemical; conditions: GSH (1 mM), PBS
# Protocol: In vitro drug release study—DM1-peptide conjugates (10 μM of drug content) were incubated in the presence of the reducing agent GSH (1 mM) in PBS buffer (800 μL). At different time intervals (0, 2, 4, 6, 8, 12, 24, and 48 h), a small amount of solution (100 μL) was taken out for HPLC analysis using C18 analytical column. The amount of DM1 active metabolites released overtime was measured (absorbance detected at 254 nm) and then quantified. The experiment was performed independently in triplicate. A similar experiment was performed to quantify the release of aldox. Aldox-peptide conjugates (100 μM of drug content) were incubated in PBS buffer (800 μL) with different pH (7.4 and 5.5) in a glass vial coated with silica to avoid non-specific adsorption on the reaction vessel surfaces. The amount of drug released over time was then measured as described above (absorbance detected at 480 nm). For accurate quantification, all the results were normalized compared to a DOX control incubated in similar conditions.
# [11] = test system: kidneys; test: Nephrotoxicity studies, kidney histology and immunohistochemistry (NGAL and KIM-1); type: in vivo, BALB/c mice; conditions: 3 days after i.v. administration; CIS 10 mg/kg, DM1-Bdd 0.75 mg/kg of drug content
# Protocol: as §3, §2
# [12] = one week after completing the treatment course
# [13] = i.v., 0.75 mg/kg weekly for 3 weeks
# [14] = i.v., 0.75 mg/kg of drug content weekly for 3 weeks
# [15] = i.v. weekly for 3 weeks, DM1/DM1-Bdd 0.75 mg/kg, CIS 10 mg/kg
structure (smiles),measurement,setting,value
"COc1cc2cc(c1Cl)N(C)C(=O)C[C@H](OC(=O)[C@H](C)N(C)C(=O)CCS)[C@]1(C)O[C@H]1[C@H](C)[C@@H]1C[C@@](O)(NC(=O)O1)[C@H](OC)/C=C/C=C(\C)C2 [DM1, N2′-deacetyl-N2′-(3-mercapto-1-oxopropyl)-maytansine]",IC50 against UMUC-3,[1],nanomolar (nM) range
same,potency against UMUC-3 compared to other chemotherapeutics,[1],"more potent than cisplatin (CIS), doxorubicin (DOX) and mitomycin (MIT), and as effective as gemcitabine (GEM)"
same,potency compared to DOX,[1],more potent than DOX
same,effectiveness against Renca cell line,[2],effective
same,"fold more potent than commonly used ITC drugs, including MIT, DOX and CIS",[3],100 fold
same,"induction of KIM-1 and/or NGAL, 3 days",[4]; 3 days,continued induction of KIM-1 and/or NGAL
same,anti-tumor activity of i.v. DM1-Bdd versus i.v. DM1,[5],similar
same,animal survival compared to i.t. MIT,[5]; i.v.,prolonged animal survival
same,survival after 100 days,[5]; i.v.,0%
same,tumor growth inhibition compared to i.t. MIT,[5]; i.v.,more effective in inhibiting tumor growth
same,"survival, i.v. or i.t.","[6]; i.v. or i.t., 0.75 mg/kg weekly for 3 weeks",died
same,tumor in kidneys by histological examination,[6]; [12],large and accompanied with an infiltration of mononuclear cells
same,inflammatory response,[7]; [13],"inflammatory response characterized by increased proportions of neutrophils, monocytes, and platelets"
same,reticulocytes,[7]; [13],induced reticulocytosis without apparent anemia
same,muscle injury (CK activity),[8]; DM1 0.75 mg/kg,induced muscle injury (CK activity)
same,"hepatotoxicity: release of ALP, ALT, and AST",[8],increases in ALT and AST activities
same,urea nitrogen/creatinine ratio,[8],increases in ALT and AST activities and BUN/creatinine ratios
same,overall toxicity,[9]; i.v. weekly for 3 weeks,evidences of hepatic and renal injury
same,"extramedullary hematopoiesis (EMH), splenic and hepatic",[9]; [13],Increased splenic and hepatic EMH
COc1cc2cc(c1Cl)N(C)C(=O)C[C@H](OC(=O)[C@H](C)N(C)C(=O)CCSSCCC(=O)NCCC(=O)N[C@H](CC(=O)O)C(=O)N[C@H](CC(=O)O)C(=O)NCCC(=O)N[C@H](CC(=O)O)C(=O)N[C@H](CC(=O)O)C(=O)NCCC(=O)N[C@H](CC(=O)O)C(=O)N[C@H](CC(=O)O)C(=O)NCCC(=O)N[C@H](CC(=O)O)C(=O)N[C@H](CC(=O)O)C(N)=O)[C@]1(C)O[C@H]1[C@H](C)[C@@H]1C[C@@](O)(NC(=O)O1)[C@H](OC)/C=C/C=C(\C)C2 [DM1-Bdd] ([Mpa](X1)[βAla][dD][dD][βAla][dD][dD][βAla][dD][dD][βAla][dD][dD]-NH2),drug release in a reducing environment,[10],enabling drug release in a reducing environment
same,time for KIM-1 and NGAL to return to basal levels,[4]; 0.75 mg/kg of drug content,≤ 3 days
same,"levels of KIM-1 and NGAL in the urine, 1 day","[4]; 0.75 mg/kg of drug content, 1 day",slightly increased
same,histologic examination of kidneys,[11],did not reveal any abnormalities in the kidneys
same,immunoreactivity of kidney sections for KIM-1 and NGAL,[11],no elevation of the immunoreactivity
same,treatment outcome of i.v. compared to i.t. administration,[5]; 0.75 mg/kg of drug content weekly for 3 weeks,better treatment outcome; also recorded: more effective
same,anti-tumor activity of i.v. DM1-Bdd versus i.v. DM1,[5],similar
same,survival after 100 days,[5]; i.v.,36%
same,tumor growth inhibition compared to i.t. MIT,[5]; i.v.,more effective in inhibiting tumor growth
same,animal survival compared to i.t. MIT,"[5]; i.v., 0.75 mg/kg",prolonged animal survival; also recorded: improved the overall survival
same,animals for which treatment was curative,"[5]; i.v., 210 days",21%
same,gross and histologic evidence of tumors in survivor mice,"[5]; i.v., 210 days",lacked gross and histologic evidence (using GFP and Ki67 immunostaining) of tumors
same,animals which lacked gross and histologic evidence of tumors,"[5]; i.v., 210 days after tumor implantation",3 animals
same,tumor size by histology,"[5]; i.v., end of treatment",smaller
same,GFP-positive cells,"[5]; i.v., immunohistochemistry",fewer GFP-positive cells
same,proportion of cells expressing Ki67,"[5]; i.v., immunohistochemistry",lower proportion of cells expressing the proliferation marker (Ki67)
same,survival benefit compared to the free drug,[6]; i.v.,significant survival benefit compared to the free drug
same,bioluminescence signals in the majority of the animals,[6]; [14],decreased bioluminescence signals
same,survival after 160 days,[6]; [14],50%
same,tumor progression,[6]; [14],inhibit tumor progression
same,tumor size,[6]; [14],reduced tumor size
same,animals lacking gross or histologic evidence of the tumor,[6]; [12],approximately 50%
same,tumor in kidneys by histological examination,[6]; [12],Minimal tumor was present
same,"red blood cell, leukocyte, or platelet counts or morphologic features",[7]; [15],"did not affect the red blood cell, leukocyte, or platelet counts or morphologic features"
same,"hepatotoxicity: release of ALP, ALT, and AST",[8],"not hepatotoxic, with no significant alteration in the release of ALP, ALT, and AST"
same,urea nitrogen/creatinine ratio,[8],normal
same,overall toxicity,[9]; i.v. weekly for 3 weeks,did not induce unwanted toxicity; also recorded: safe toxicity profile
same,"histopathology of liver, spleen, heart, lungs, or kidneys",[9]; [15],"no morphological evidence of injury in the liver, spleen, heart, lungs, or kidneys"
